Measurements taken from paper PMC3002932 (PLoS ONE, 2010).
Where two headings read alike, the source gives them in different places.

Key:
HIV-1 (BaL) = assay: p24^gag antigen release assay in PM1 cells; type: cell-based; settings: MOI = 10^−2, 0.078–5 µM, 37°C/5% CO2, p24 ELISA, day 5 represents peak infection
Method: The cells were washed and resuspended in fresh growth media containing vehicle or peptides for 7 days. Supernatants were collected at days 3, 5, and 7 post-infection, and on days 3 and 5 the cells were resuspended in 1 ml of growth medium containing the appropriate concentration of vehicle or peptide. HIV-1 infection was quantified by measuring the amount of p24^gag in the cell supernatants (Perkin Elmer p24 ELISA, Waltham, MA).

gp120LAV = gp120LAV (Human immunodeficiency virus type 1 group M subtype B, UniProt P03377); settings: SPR, BIAcore CM5 chip, HBS-EP pH = 7.4; KD±SEM, average from at least 5 independent experiments
Method: Surface plasmon resonance (SPR) studies were performed on a BIAcore 3000 system (BiaCore AB, Piscataway, NJ), using BIAcore CM5 sensor chips and HBS-EP running buffer (pH = 7.4) containing 10 mM HEPES, 150 mM NaCl, 3 mM EDTA, and 0.005% polysorbate 20. Proteins/peptides were immobilized on a CM5 sensor chip using the amine coupling method. The chip was activated by mixing 400 mM N-ethyl-N-(3-dimethylaminopropyl)-carbodiimide hydrochloride and 100 mM N-hydroxysuccinimide. Residual reactive groups on the chip surface were blocked using 1.0 M ethanolamine/HCl (pH = 8.5). The flow cell-1 chamber, which served as a control, lacked immobilized protein but was treated with N-ethyl-N-(3-dimethylaminopropyl)-carbodiimide hydrochloride, N-hydroxysuccinimide, and ethanolamine/HCl. Binding signals were corrected for nonspecific binding by subtracting the flow cell-1 signal. To regenerate chip surfaces, bound ligands were removed with 10 mM HCl. Data were analyzed with BIAevaluation 4.1 software (Biacore, Piscataway, NJ).

gp120BAL = assay: SPR binding to gp120BAL; parameters: species or system HIV-1; settings: BIAcore CM5 chip, HBS-EP pH = 7.4, KD±SEM, average from at least 5 independent experiments
[1] = tested on: gp41, gp120BAL and gp120LAV; assay: SPR binding to viral glycoproteins (gp41, gp120BAL, gp120LAV); parameters: species or system HIV-1
[2] = tested on: human red blood cells (hRBCs); type: cell-based
Method: Heparinized fresh blood (∼3 ml) was collected from an anonymous donor. A 200 µl aliquot was removed and washed 4× with 800 µl of cold PBS at RT for 3 min at ∼500×g. After each centrifugation, 780 µl of supernatant was removed. After the last wash, the supernatant was completely removed and the packed red blood cells were diluted 1∶20 in PBS to prepare a 5% v/v stock suspension of hRBCs.
All experiments were carried out in triplicate using 96-well microplate (Costar 3596) and the OD at 700 nm was monitored every 30 s. employing the SpectraMAX 250 microplate reader (Molecular Devices, Sunnyvale, CA). Controls included PBS, untreated human RBCs, and human RBCs +2.5% Triton (100% lysis). The hemolytic effect was calculated as follows: [drawing 1]

TZM-bl cells = assay: Cell viability (CytoTox-Glo) in TZM-bl cells; type: cell-based; settings: Figure 8
Method: Cell viability experiments were carried out using CytoTox-Glo™ Assay (Promega Corp., Madison, WI) and cytotoxicity was analyzed using an MTT-based cell proliferation kit (Boehringer Mannheim, Indianapolis, IN) Both tests were performed according to manufacturer's instructions. MTT is 3-(4,5-dimethylthiazol-2-yl)-2,5-diphenyltetrazolium bromide. Experiments utilizing vaginal epithelial cells (VECs) were carried out as previously described.

[3] = SDS-PAGE in non-reductive conditions; type: physicochemical; settings: inconclusive
[4] = NMR studies of oligomerization (data not shown); type: physicochemical; settings: water, DMSO and their mixtures; limited NMR studies (data not shown)

Question: For “Cha-SC-Chg-R-Chg-RSGSY-Cha-DN-Chg-R-Chg-(D)Cys-CONH2 (disulfide) [GRFN-1]”, which EC50 (HIV-1 (BaL)) is on record?
Answer: 547 ± 66.1 nM

Question: And the Kd (gp120LAV)?
Answer: 2240 ± 810 nM

Question: What about the Kd (gp120BAL) of the same substance?
Answer: 1060 ± 220 nM

Question: What about the “binding (in words)” value [1] of the same substance?
Answer: binds gp41, gp120BAL and gp120LAV in a dose dependent manner

Question: And the Hemolysis ([2]; 2.5 µM)?
Answer: 1.2±0.7%

Question: What about the Hemolysis ([2]; 5 µM) of the same substance?
Answer: 2.8±2.3%

Question: And the Hemolysis ([2]; 10 µM)?
Answer: 7.3±1.3%

Question: And the effect on viability (TZM-bl cells)?
Answer: no effect on viability

Question: What about the “apparent size of dimers” value [3] of the same substance?
Answer: ~4.5 kDa

Question: And the “oligomerization (in words)” value [4]?
Answer: Oligomerization of GRFN-1 in various solvents (water, DMSO and their mixtures) was suggested
